# Experimental data reported in patent US8980335B2, “Use of organic acids and essential oils in animal feeding” (DSM IP Assets B.V., priority 2007, dated 2015).
# Assays:
# [1] = system: poultry; conditions: cited from earlier work
# [2] = system: broiler chickens; assay: Growth performance trial with broiler chickens (day 8 to day 29); assay type: in vivo, chickens (ROSS PM3); conditions: for Feed conversion (g feed/g gain) / Feed conversion relative to control (control 100.0) / Feed intake (g/bird) / Feed intake relative to control (control 100.0) / Weight gain (g/bird) / Weight gain relative to control (control 100.0): Day 8-29
# Method: A growth performance trial with broiler chickens was performed from day 8 to day 29. The chickens were housed in wire-floored battery cages. From day-old until day 8, the chickens were fed a pre-experimental diet based on wheat, maize and soybean meal. In the experimental period (day 8 to 29) the chickens received diets based on wheat, rye and soybean meal (composition see Table 1). Groups of birds were weighed on days 8, 15, 22 and 29. The feed consumption for the intermediate periods was determined and body weight gain and feed conversion ratio were calculated.
# Beside an un-supplemented control treatment and a positive control containing 10 mg of the antibiotic Avilamycin per kg feed, benzoic acid (VevoVitall) was included at 500 mg per kg feed. In addition, per kg feed, combinations of 250 mg benzoic acid and 50 mg of the composition comprising thymol, eugenol and piperine (herein abbreviated by TEP) as well as either 500 mg benzoic acid and 25 mg TEP or 500 mg benzoic acid and 50 mg TEP were tested, respectively.
# [3] = system: pig; conditions: cited from earlier work
smiles,measurement,setting,value
"O=C(O)c1ccccc1 [VevoVitall, benzoic acid]",Dosage in feed at which undesired adverse effects occur,[1],> 5000 mg/kg poultry feed
same,Feed conversion (g feed/g gain),[2]; dose 500 mg/kg feed,2.117 ± 0.093 g feed/g gain
same,Feed conversion relative to control (control 100.0),[2]; dose 500 mg/kg feed,100.8
same,Feed intake (g/bird),[2]; dose 500 mg/kg feed,2538 ± 309.6 g/bird
same,Feed intake relative to control (control 100.0),[2]; dose 500 mg/kg feed,104.3
same,Weight gain (g/bird),[2]; dose 500 mg/kg feed,1196 ± 103.0 g/bird
same,Weight gain relative to control (control 100.0),[2]; dose 500 mg/kg feed,103.1
same,Improvement in weight gain compared to the control,[2]; VevoVitall alone at 500 mg/kg,3%
same,Dosage in feed at which undesired adverse effects occur,[3],> 10000 mg/kg pig feed
COC[C@H]1O[C@@H](OC2OC[C@@H]3O[C@]4(O[C@H]3[C@H]2OC(=O)C(C)C)O[C@H](C)[C@@](O)(C(C)=O)[C@@H]2OCO[C@H]24)[C@@H](OC)[C@@H](O)[C@@H]1O[C@@H]1O[C@H](C)[C@H](OC)[C@H](O[C@H]2C[C@@]3(C)OC4(C[C@@H](O)[C@H](O[C@H]5C[C@@H](O)[C@H](OC(=O)c6c(C)c(Cl)c(O)c(Cl)c6OC)[C@@H](C)O5)[C@@H](C)O4)O[C@@H]3[C@@H](C)O2)[C@H]1O (some centres unmarked) [Avilamycin],Improvement in weight gain compared to the control,[2]; Avilamycin 10 mg per kg feed,8.7%
same,Improvement of feed conversion (FCR) compared to the negative control,[2]; Avilamycin 10 mg per kg feed,4.3%
same,Feed conversion (g feed/g gain),[2]; dose 10 mg/kg feed,2.008 ± 0.052 g feed/g gain
same,Feed conversion relative to control (control 100.0),[2]; dose 10 mg/kg feed,95.7
same,Feed intake (g/bird),[2]; dose 10 mg/kg feed,2533 ± 199.6 g/bird
same,Feed intake relative to control (control 100.0),[2]; dose 10 mg/kg feed,104.1
same,Weight gain (g/bird),[2]; dose 10 mg/kg feed,1261 ± 76.8 g/bird
same,Weight gain relative to control (control 100.0),[2]; dose 10 mg/kg feed,108.7
